System: myocytes
Assay: PDT of heart tissue, cell death tracked by PI fluorescence
Details: in vivo
Excerpt: PI fluorescence is only from myocytes.
FIG. 25 are images showing an embodiment of a non-targeted PDT with Ce6, in accordance with the present inventions.
Turning to FIG. 15, there is shown that PI (a nuclear stain for dead cells) is only present in myocytes (3 different magnified areas).
Turning to FIG. 16, there is shown similar tissue sampling test as FIG. 15, but using non-targeted PDT.

With chlorin e6 [Ce6] as the substance, how does the “damage to vasculature / non-target cells after PDT (PI fluorescence)” value read?
The value was “vasculature damage”.

What about the “damage to vasculature / non-target cells after PDT (PI fluorescence)” value (listed as untargeted Ce6) of the same substance?
Its value is “kills everything”.
